Measurements taken from ChEMBL document CHEMBL4270581, “Synthesis of carbohydrazides and carboxamides as anti-tubercular agents” (Eur J Med Chem, 2018).
In brackets after ≈: the same amount, converted by molar mass.

Columns and labels:
[1] = biological target: T1, Enoyl-[acyl-carrier-protein] reductase [NADH] (Mycobacterium tuberculosis) (UniProt P9WGR1); experiment: Inhibition of replicating Mycobacterium tuberculosis H37Rv InhA assessed as cell growth inhibition after 7 days by MABA method
T1 sequence (whole entry): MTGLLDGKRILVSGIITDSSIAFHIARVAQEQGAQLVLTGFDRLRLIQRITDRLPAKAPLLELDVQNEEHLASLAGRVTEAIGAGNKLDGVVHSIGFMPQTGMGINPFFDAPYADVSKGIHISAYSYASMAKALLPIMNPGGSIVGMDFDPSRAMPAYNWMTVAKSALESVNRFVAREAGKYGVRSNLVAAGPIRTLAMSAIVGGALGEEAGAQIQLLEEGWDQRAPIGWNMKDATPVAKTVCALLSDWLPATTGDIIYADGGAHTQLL

[2] = Cytotoxicity against HEK293 cells assessed as inhibition of cell viability at 25 ug/ml after 48 hrs by MTT assay relative to control; format: cell-based; details: human, read-out: INH

SMILES | MIC [1] [µg/mL] | cytotoxicity at 48 h, 25 ug/ml [2] [%]
O=C(NNC(=O)[C@H](Cc1ccc(O)cc1)NC(=O)c1ccc(-c2ccc(F)cc2)o1)c1ccc(Br)cc1 | 25 (≈ 44.1 µM) | 
O=C(NNC(=O)[C@H](Cc1ccc(O)cc1)NC(=O)c1ccc(-c2ccc(F)cc2)s1)c1ccc(Cl)cc1 | 0.78 (≈ 1.45 µM) | 17
O=C(N[C@@H](Cc1ccc(O)cc1)C(=O)NNC(=O)c1ccccc1F)c1ccc(-c2ccc(F)cc2)s1 | > 25 | 
CC[C@@H](CO)NCCN[C@@H](CC)CO | 1.56 (≈ 7.64 µM) | 
CSc1ccc(-c2ccc(C(=O)NNC(=O)c3ccc(C(C)(C)C)cc3)o2)cc1 | 6.25 (≈ 15.3 µM) | 10.6
COc1ccc(C(=O)NNC(=O)[C@H](Cc2ccc(O)cc2)NC(=O)c2ccc(-c3ccc(F)cc3)s2)cc1 | 1.56 (≈ 2.92 µM) | 23.6
O=C(NNC(=O)[C@H](Cc1ccc(O)cc1)NC(=O)c1ccc(-c2ccccc2)o1)c1ccc(Br)cc1 | 0.78 (≈ 1.42 µM) | 16.3
CC(C)(C)c1ccc(C(=O)NNC(=O)[C@H](Cc2ccc(O)cc2)NC(=O)c2ccc(Br)o2)cc1 | 3.12 (≈ 5.91 µM) | 26.6
O=C(NNC(=O)[C@H](Cc1ccc(O)cc1)NC(=O)c1ccc(-c2ccc(F)cc2)s1)c1ccc(F)cc1 | 6.25 (≈ 12 µM) | 22.9
NNC(=O)c1ccncc1 | 0.1 (≈ 0.729 µM) | 
CSc1ccc(-c2ccc(C(=O)NNC(=O)c3ccco3)o2)cc1 | 6.25 (≈ 18.3 µM) | 11.6
CO[C@H]1/C=C/O[C@@]2(C)Oc3c(C)c(O)c4c(O)c(c(/C=N/N5CCN(C)CC5)c(O)c4c3C2=O)NC(=O)/C(C)=C\C=C\[C@H](C)[C@H](O)[C@@H](C)[C@@H](O)[C@@H](C)[C@H](OC(C)=O)[C@@H]1C | 0.2 (≈ 0.243 µM) | 
CSc1ccc(-c2ccc(C(=O)NNC(=O)c3ccc(O)cc3)o2)cc1 | 0.78 (≈ 2.12 µM) | 17.4
CC(C)(C)c1ccc(C(=O)NNC(=O)[C@H](Cc2ccc(O)cc2)NC(=O)c2ccc(-c3ccccc3)o2)cc1 | 0.78 (≈ 1.48 µM) | 18.7
COc1ccc(C(=O)NNC(=O)c2ccc(-c3ccccc3SC)s2)cc1 | > 25 | 
O=C(NNC(=O)[C@H](Cc1ccc(O)cc1)NC(=O)c1ccc(Br)o1)c1ccc(Cl)cc1 | 12.5 (≈ 24.7 µM) | 
COc1ccc(C(=O)NNC(=O)[C@H](Cc2ccc(O)cc2)NC(=O)c2ccc(-c3ccc(OC)cc3)o2)cc1 | 0.78 (≈ 1.47 µM) | 29.9
COc1ccc(C(=O)NNC(=O)c2ccc(-c3ccc(SC)cc3)o2)cc1 | 0.78 (≈ 2.04 µM) | 17.4
O=C(NNc1nc2ccccc2s1)c1ccc(-c2ccccc2)o1 | 25 (≈ 74.5 µM) | 
CSc1ccc(-c2ccc(C(=O)NNC(=O)c3ccc(F)cc3)o2)cc1 | 0.39 (≈ 1.05 µM) | 27
Cc1ccc(C(=O)NNC(=O)[C@H](Cc2ccc(O)cc2)NC(=O)c2ccc(-c3ccccc3)o2)cc1 | 12.5 (≈ 25.9 µM) | 
CSc1ccc(-c2ccc(C(=O)NNC(=O)c3ccccc3F)o2)cc1 | 6.25 (≈ 16.9 µM) | 16.9
O=C(NNC(=O)[C@H](Cc1ccc(O)cc1)NC(=O)c1ccc(Br)o1)c1ccc(F)cc1 | > 25 | 
COc1ccccc1C(=O)NNC(=O)c1ccc(-c2ccc(SC)cc2)o1 | 12.5 (≈ 32.7 µM) | 
COc1ccc(C(=O)NNC(=O)[C@H](Cc2ccc(O)cc2)NC(=O)c2ccc(Br)o2)cc1 | > 25 | 
Cc1ccc(C(=O)NNC(=O)c2ccc(-c3ccccc3S(C)(=O)=O)o2)cc1 | 3.12 (≈ 7.84 µM) | 22.9
